Molecular target: T1, hyaluronidase (HAase) (Bos taurus, UniProt Q2YDK3)
T1 construct: Hyaluronidase was obtained from bovine testes (Sigma-Aldrich, St. Louis, MO, USA); purchased Sigma-Aldrich; host or cells: bovine testes (tissue-derived)
T1 sequence (Q2YDK3 36-553): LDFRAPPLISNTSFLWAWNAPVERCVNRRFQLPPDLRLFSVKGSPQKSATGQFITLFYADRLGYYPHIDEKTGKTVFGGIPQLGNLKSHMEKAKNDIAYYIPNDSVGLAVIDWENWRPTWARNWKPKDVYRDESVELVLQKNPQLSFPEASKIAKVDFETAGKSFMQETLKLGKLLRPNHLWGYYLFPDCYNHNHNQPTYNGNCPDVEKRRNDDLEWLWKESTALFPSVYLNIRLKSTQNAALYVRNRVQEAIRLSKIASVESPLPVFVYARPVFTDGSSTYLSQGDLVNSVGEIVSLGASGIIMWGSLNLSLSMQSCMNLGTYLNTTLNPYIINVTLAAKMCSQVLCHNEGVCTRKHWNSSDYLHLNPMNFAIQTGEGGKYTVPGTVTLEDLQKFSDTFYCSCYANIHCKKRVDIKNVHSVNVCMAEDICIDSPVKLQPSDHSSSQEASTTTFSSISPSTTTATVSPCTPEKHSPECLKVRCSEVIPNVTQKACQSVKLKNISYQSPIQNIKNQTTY
Assay: Hyaluronidase inhibitory activity enzymatic assay (HA substrate, DMAB, absorbance 540 nm)
Format: biochemical
Conditions: hyaluronidase from bovine testes; EGCG positive control
From the text: Luria–Bertani Broth (LB) and Lactobacilli MRS Broth (Becton, Franklin Lakes, NJ, USA) were used for the bacterial culture. Silica gel (Merck, Darmstadt, Germany) and Sephadex LH-20 gel (Sigma-Aldrich, St. Louis, MO, USA) were used for chromatographic separations. Thin-layer chromatography (TLC) plates (Merck, Darmstadt, Germany) were used for analytical purposes. Hyaluronidase was obtained from bovine testes (Sigma-Aldrich, St. Louis, MO, USA). Nuclear magnetic resonance (NMR) spectrums were obtained using JNM-ECX 400 (FT-NMR system, 400 MHz, JEOL Co., Akishima, Japan).
In the enzymatic assay, 5 μL of hyaluronidase enzyme and 12.5 mM CaCl2 samples at varying concentrations were added to a 96-well plate. The samples were reacted for 20 min and incubated at 37 °C. After the initial incubation, 25 μL of the substrate solution (HA at a concentration of 2.4 mg/mL) was added. The reaction mixture was incubated again at 37 °C for 40 min. Then, 5 μL of 0.4 N NaOH and 5 μL of 0.4 M potassium tetraborate were added to the mixture, followed by incubation at 100 °C for 3 min. After cooling, 150 μL of DMAB solution (p-dimethylaminobenzaldehyde + acetic acid + 10 N HCL) was added to the reaction mixture. The absorbance of the reaction mixture was measured at 540 nm. Epigallocatechin gallate (EGCG) was used as a positive control in this assay.

| SMILES | IC50 |
| --- | --- |
| O=C(O[C@@H]1Cc2c(O)cc(O)cc2O[C@@H]1c1cc(O)c(O)c(O)c1)c1cc(O)c(O)c(O)c1 [EGCG, Epigallocatechin gallate] | 172 µM |
| COC(=O)Cc1c[nH]c2ccccc12 [Methyl indole-3-acetate, methyl indole-3-acetate] | 344 µM |
